Like-named read-outs stand apart in the source and are kept apart here.
Tests used:
two-spotted spider mites = assay: Test Example 1: acaricidal activity, dipping of kidneybean leaves infested with two-spotted spider mites; type: in vivo; conditions: for activity at 1.25 ppm: 1.25 p.p.m.; for activity at 2.5 ppm: 2.5 p.p.m.; for activity at 5 ppm / activity at 10 ppm / activity at 20 ppm: read-out: acaricidal activity (%); for activity at 0.04 ppm: 0.04 p.p.m.; for activity at 0.08 ppm: 0.08 p.p.m.; for activity at 0.16 ppm: 0.16 p.p.m.; for activity at 0.31 ppm: 0.31 p.p.m.; for activity at 0.63 ppm: 0.63 p.p.m.
Solubility in solvents = type: physicochemical; conditions: "do." = same as A1
[1] = Alcohol solution, neutralization titration method (pKa); type: physicochemical
Description: |Alcohol solution, |neutralization pH ranging |titration method

European red mites = assay: Test Example 2: spraying of apple leaves infested with European red mites; type: in vivo; conditions: 5 days after spraying, non-treated 88/102
Method: An emulsifiable concentrate containing 20% of a of a crude B-41, which had been obtained by purifying two times according to alumina column chromatography the brown oily substance prepared in Example 1, was diluted to a given concentration to prepare a chemical solution. This chemical solution was sprayed to apple leaves infested with about 100 European red mites and, 5 days thereafter, the number of living mites was counted.

citrus red mites = assay: Test Example 3: acaricidal activity, spraying of orange leaves infested with citrus red mites; type: in vivo; conditions: after 24 hours
Method: This chemical solution was sprayed to orange leaves infested with citrus red mites, and the acaricidal activity (%) after 24 hours was calculated.

rice stem borer = assay: Test Example 5: mortality of rice stem borer larvae in rice plants; type: in vivo, rice stem borer of 1st generation; conditions: 120 h, read-out: mortality (%) of the larvae
Method: Eggs of rice stem borer of 1st generation were inoculated to rice plants (variety "Kinmaze"), which had been planted in 200 cm^2 pots, and were hatched to allow the larvae invade the stems. Subsequently, a wettable powder containing 40% of a crude B-41, which had been obtained by purifying two times according to alumina column chromatography the brown oily substance prepared in Example 1, was diluted to a given concentration and then sprayed to the plants in a proportion of 100 cc. per pot. 5 Days thereafter, the stems were split to examine the alive and dead of the larvae, and the mortality (%) of the larvae was calculated.

| Compound | pKa (No pKa at pH ranging from 2 to 12) [1] | activity at 1.25 ppm (two-spotted spider mites; after 24 hours) [%] | activity at 2.5 ppm (two-spotted spider mites; after 24 hours) [%] | activity at 5 ppm (two-spotted spider mites; 5 p.p.m., after 24 hours) [%] | activity at 10 ppm (two-spotted spider mites; 10 p.p.m., after 24 hours) [%] | activity at 20 ppm (two-spotted spider mites; 20 p.p.m., after 24 hours) [%] | activity at 0.04 ppm (two-spotted spider mites; after 24 hours) [%] | activity at 0.08 ppm (two-spotted spider mites; after 24 hours) [%] | activity at 0.16 ppm (two-spotted spider mites; after 24 hours) [%] | activity at 0.31 ppm (two-spotted spider mites; after 24 hours) [%] | activity at 0.63 ppm (two-spotted spider mites; after 24 hours) [%] | further results |
| --- | --- | --- | --- | --- | --- | --- | --- | --- | --- | --- | --- | --- |
| COC1CC2(O)C(CO)=CC=CC(C)CC(C)=CCC3CC(CC4(CCC(C)C(C)O4)O3)OC(=O)C2C=C1C (stereo not drawn) [A1] | No pKa | 0 | 19.9 | 100 | 100 | 100 | – | – | – | – | – | Solubility in organic solvents ("easily soluble in n-hexane, benzene, acetone, ethanol and chloroform") (Solubility in solvents; n-hexane, benzene, acetone, ethanol and chloroform): easily; Solubility in water ("Difficultly soluble in water") (Solubility in solvents; water): Difficultly |
| CC1=CCC2CC(CC3(CCC(C)C(C)O3)O2)OC(=O)C2C=C(C)C(O)C3OCC(=CC=CC(C)C1)C23O (stereo not drawn) [A3] | do. | 100 | 100 | 100 | 100 | 100 | 15.2 | 100 | 98.2 | 100 | 100 | – |
| CCC1OC2(CCC1C)CC1CC(CC=C(C)CC(C)C=CC=C3COC4C(O)C(C)=CC(C(=O)O1)C34O)O2 (stereo not drawn) [A4] | – | 100 | 100 | 100 | 100 | 100 | 21.3 | 100 | 100 | 100 | 100 | – |
| COC1C(C)=CC2C(=O)OC3CC(CC=C(C)CC(C)C=CC=C4COC1C42O)OC1(CCC(C)C(C)O1)C3 (stereo not drawn) [B2] | – | 100 | 100 | 100 | 100 | 100 | – | 0 | 16.6 | 80.5 | 100 | pH at which crystallization took place in the titration ([1]; alcohol solution, neutralization titration): ~8.7 |
| CCC1OC2(CCC1C)CC1CC(CC=C(C)CC(C)C=CC=C3COC4C(OC)C(C)=CC(C(=O)O1)C34O)O2 (stereo not drawn) [B3] | – | 100 | 100 | 100 | 100 | 100 | 0 | 18.3 | 74.1 | 100 | 100 | – |
| OC(c1ccc(Cl)cc1)(c1ccc(Cl)cc1)C(Cl)(Cl)Cl [Kelthane, 1,1-Bis-(p-chlorophenyl)-2,2,2-trichloroethanol] | – | – | – | – | – | – | – | – | – | – | – | activity at 5 ppm (two-spotted spider mites; 24 h): 0%; activity at 10 ppm (two-spotted spider mites; 24 h): 56.4%; activity at 20 ppm (two-spotted spider mites; 24 h): 100%; number of mites living at counting / before spraying (given as fraction) (European red mites; 50 p.m.m. [sic]): 56/128; number of mites living at counting / before spraying (given as fraction) (European red mites; 100 p.p.m.): 8/103; number of mites living at counting / before spraying (given as fraction) (European red mites; 200 p.p.m.): 0/97; activity at 7 ppm (citrus red mites; 7 p.p.m.): 30.8%; activity at 20 ppm (citrus red mites; 20 p.p.m.): 90.9% |
| COP(=O)(OC)OC=C(Cl)Cl [Reference **] | – | – | – | – | – | – | – | – | – | – | – | mortality at 50 ppm (rice stem borer): 25.5%; mortality at 100 ppm (rice stem borer): 82.1% |

Continued, in another order:

| pKa (No pKa at pH ranging from 2 to 12) [1] | Compound | activity at 1.25 ppm (two-spotted spider mites; after 24 hours) [%] | activity at 2.5 ppm (two-spotted spider mites; after 24 hours) [%] | activity at 5 ppm (two-spotted spider mites; 5 p.p.m., after 24 hours) [%] | activity at 10 ppm (two-spotted spider mites; 10 p.p.m., after 24 hours) [%] | activity at 20 ppm (two-spotted spider mites; 20 p.p.m., after 24 hours) [%] | activity at 0.04 ppm (two-spotted spider mites; after 24 hours) [%] | activity at 0.08 ppm (two-spotted spider mites; after 24 hours) [%] | activity at 0.16 ppm (two-spotted spider mites; after 24 hours) [%] | activity at 0.31 ppm (two-spotted spider mites; after 24 hours) [%] | activity at 0.63 ppm (two-spotted spider mites; after 24 hours) [%] | further results |
| --- | --- | --- | --- | --- | --- | --- | --- | --- | --- | --- | --- | --- |
| No pKa | CC1=CCC2CC(CC3(CCC(C)C(C)O3)O2)OC(=O)C2C=C(COC(=O)c3ccc[nH]3)C(O)C3OCC(=CC=CC(C)C1)C23O (stereo not drawn) [C1] | 100 | 100 | 100 | 100 | 100 | 51.8 | 100 | 100 | 100 | 100 | – |
| do. | CCC1OC2(CCC1C)CC1CC(CC=C(C)CC(C)C=CC=C3COC4C(O)C(COC(=O)c5ccc[nH]5)=CC(C(=O)O1)C34O)O2 (stereo not drawn) [C2] | 100 | 100 | 100 | 100 | 100 | 97.3 | 100 | 100 | 100 | 100 | – |
